{"source": "patent US8383582B2", "about": "“Inhibitor against forming biofilm comprising κ-casein macropeptide” (Industry Foundation of Chonnam National University, priority 2010, dated 2013)", "key": {"[1]": {"system": "L. monocytogenes Scott A to AGS cell", "assay": "Adhesion analysis on AGS cells", "format": "cell-based, Listeria monocytogenes", "conditions": "CMP 0.4 mg/ml, at the lower MOI, 30 min 37° C.", "text": "(§1) The human intestinal epithelial cell line HT-29 and the human gastric epithelial cell line AGS were purchased from the Korea Cell Line Bank (KCLB; Seoul, Korea). HT-29 cells have been extensively used as a model system for studying interaction of enteric pathogens with intestinal epithelial cells. All media and fetal bovine serum (FBS) were obtained from Gibco BRL (Life Technologies Inc., Grand Island, N.Y., USA) and JBI (Jeil Biotech services Inc., Seoul, Korea). The HT-29 and AGS cells were grown in RPMI-1640 medium which was supplemented with 10% heat-inactivated FBS. The cells were routinely cultured at 37° C. in 5% CO2 incubator with 6-well or 12-well tissue culture plates for adhesion and invasion assays and in 100-mm-diameter tissue culture plates for RNA isolation.\n(§2) Prior to the adhesion assay, the HT-29 and the AGS cells monolayers were washed three times in pre-warm PBS (25° C.) to remove any culture medium and non-attached cells. The adhesion assays were performed using L. monocytogenes Scott A according to the method of Hagman et al. (1999) with modifications. Bacteria were grown overnight at 37° C. in TSBYE. […]"}, "[2]": {"system": "L. monocytogenes Scott A", "assay": "Nematode Caenorhabditis elegans killing assay", "format": "in vivo", "description": "Caenorhabditis elegans killing assay were performed as initially described by Tenor et al. (2004) with modification. Briefly, L. monocytogenes Scott A was grown in 10 ml of TSBYE culture for overnight. Culture samples (each, 10 μl) were then spread on NGM agar plates (Brenner, 1974; diameter of each, 30 mm). In the present invention, instead of wild-type Bristol N2 worms, we tested killing of C. elegans glp-4 mutant worms. […] (Mylonakis et al., 2002). For each strain, healthy 12 nematodes in L4 stage were transferred from NGM plates seeded with Escherichia coli OP50 to the plates seeded with L. monocytogenes Scott A in the absence or presence of 0.4 mg/ml of CMP and incubated at 25° C. The number of living worms per plate was determined at various time points for 15 days with a light microscopy (Olympus CH30, Tokyo, Japan). […] Each experimental condition was tested in duplicate or triplicate. In analogous experiments, E. coli OP50 was used as controls."}, "[3]": {"system": "L. monocytogenes Scott A to HT-29 cell", "assay": "Adhesion analysis on HT-29 cells", "format": "cell-based, Listeria monocytogenes", "conditions": "CMP 0.4 mg/ml, at the lower MOI, 30 min 37° C.", "text": "as §1, §2"}, "[4]": {"system": "L. monocytogenes", "assay": "Growth yields in MWB at 30° C.", "format": "cell-based, Listeria monocytogenes", "conditions": "data not shown"}, "[5]": {"system": "L. monocytogenes Scott A to AGS cell", "assay": "Invasion analysis (gentamicin-based) on AGS cells", "format": "cell-based, Listeria monocytogenes", "conditions": "CMP 0.4 mg/ml, at the lower MOI, 1.5 h 37° C.", "text": "as §1\n(§3) The invasion of epithelial cells by L. monocytogenes Scott A was studied using the gentamicin-based assay described by Bunduki et al. (1993) and Gaillard et al. (1987) with modifications. Briefly, the HT-29 and the AGS cells monolayers (10^6 cells) were inoculated with 100 μl of the L. monocytogenes Scott A suspension (10^8 and 10^6 CFU/ml) and incubated for 1.5 h at 37° C. in the absence or presence of 0.4 mg/ml CMP, respectively. The monolayers were washed with PBS, followed by the addition of 250 μl of 1 mg/ml gentamicin (Sigma) and incubation for an additional 1.5 h. […]"}, "[6]": {"system": "virulence-associated genes of L. monocytogenes", "assay": "Semi-quantitative RT-PCR of virulence-associated genes", "format": "cell-based, Listeria monocytogenes", "conditions": "0.4 mg/ml CMP; L. monocytogenes Scott A infected HT-29 cells", "description": "The regulation of virulence-associated genes was investigated by using semi-quantitative RT-PCR techniques. Total RNA was isolated from the each treated samples using a RNeasy™ Total RNA Kit (Qiagen) with manufacturer's manuals. One μg total RNA was reverse transcribed in 20 μl reaction mixtures with SuperScript™ III First-Strand cDNA Synthesis Kit (Invitrogen, Carlsbad, Calif.). Then, cDNA were then amplified by using Taq DNA polymerase (TaKaRa, Japan). For the iap, denaturation for 5 min at 94° C. was followed by 40 cycles composed of 30 s denaturation at 94° C., 45 s annealing at 60° C. (TABLE 4), and 1 min elongation at 72° C. Except for the iap, denaturation for 5 min at 94° C. was followed by 35 cycles composed of 1 min denaturation at 94° C., 2 min annealing at 60° C. (TABLE 4), and 1 min elongation at 72° C. The last cycle was followed by 10 min final elongation at 72° C. Oligonucleotide (Bioneer, Daejun, Korea) sequences used for the amplification of each gene fragments including expression of proteins (HT-29) are shown in TABLE 4 (Haller et al., 2000). The RT-PCR products were electrophoresed in a 1.5% agarose gel and visualized by ethidium bromide (EtBr) staining. The intensity of each band was determined by densitometric analysis of gels using Kodak DC290 zoom digital camera and Kodak 1D image analysis software (Eastman Kodak Company, Rochester, N.Y., USA)."}, "[7]": {"system": "L. monocytogenes Scott A to HT-29 cell", "assay": "Invasion analysis (gentamicin-based) on HT-29 cells", "format": "cell-based, Listeria monocytogenes", "conditions": "CMP 0.4 mg/ml, at the lower MOI, 1.5 h 37° C.", "text": "as §1, §3"}}, "note": "Values joined by “and” are separate entries in the source; they are usually repeats but may differ in a detail not shown here. Equal values may be shown once."}
{"substance": "κ-casein macropeptide [CMP]", "values": [{"measurement": "adhesion of L. monocytogenes Scott A", "setting": "[1]", "value": "prevented"}, {"measurement": "worms survived", "setting": "[2]; C. elegans glp-4 on lawn of L. monocytogenes Scott A, agar medium with CMP 0.4 mg/ml, 8 days, 25° C., 37.5% without CMP", "value": "54% and 50%"}, {"measurement": "survival of C. elegans from the infection of L. monocytogenes", "setting": "[2]; CMP 0.4 mg/ml, 15 days", "value": "prolong the survival ability"}, {"measurement": "adhesion of L. monocytogenes Scott A", "setting": "[3]", "value": "prevented"}, {"measurement": "effect on growth yields", "setting": "[4]", "value": "did not significantly affect"}, {"measurement": "invasion of L. monocytogenes Scott A", "setting": "[5]", "value": "prevented"}, {"measurement": "mRNA level of hlyA", "setting": "[6]", "value": "significantly repressed"}, {"measurement": "mRNA level of iap", "setting": "[6]", "value": "significantly repressed"}, {"measurement": "mRNA level of inlA", "setting": "[6]", "value": "significantly repressed"}, {"measurement": "mRNA level of plcB", "setting": "[6]", "value": "significantly repressed"}, {"measurement": "invasion of L. monocytogenes Scott A", "setting": "[7]", "value": "prevented"}]}
